For data set [1], the target named is T1, COX-1 (Mus musculus, UniProt P22437).
T1 construct: there is no pre-treatment of aspirin and LPS in the adhesion of macrophage; endogenous in cells; host or cells: peritoneal macrophages of C57BL/6 mouse, without aspirin and LPS pre-treatment
T1 sequence (P22437 27-602): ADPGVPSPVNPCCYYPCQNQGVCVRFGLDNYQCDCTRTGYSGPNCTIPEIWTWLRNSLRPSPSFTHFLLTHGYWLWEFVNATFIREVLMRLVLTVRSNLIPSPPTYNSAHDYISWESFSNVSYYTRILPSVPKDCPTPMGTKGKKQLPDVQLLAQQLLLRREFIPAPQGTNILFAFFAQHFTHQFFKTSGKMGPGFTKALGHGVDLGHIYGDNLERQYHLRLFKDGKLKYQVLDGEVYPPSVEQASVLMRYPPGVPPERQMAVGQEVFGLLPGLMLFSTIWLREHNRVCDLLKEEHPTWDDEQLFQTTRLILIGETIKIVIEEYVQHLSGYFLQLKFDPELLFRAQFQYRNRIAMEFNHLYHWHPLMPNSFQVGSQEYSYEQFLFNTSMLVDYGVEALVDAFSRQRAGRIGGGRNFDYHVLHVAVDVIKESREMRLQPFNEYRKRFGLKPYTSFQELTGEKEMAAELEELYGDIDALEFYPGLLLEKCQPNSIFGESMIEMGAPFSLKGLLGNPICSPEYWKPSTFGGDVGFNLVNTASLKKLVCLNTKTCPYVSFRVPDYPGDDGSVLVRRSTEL
Briefly: Evaluation of COX-1's inhibition efficacy (macrophages without aspirin and LPS pre-treatment). The conditions noted are these: for inhibition at 10 µg/mL: 10 μg/ml; for inhibition at 1 µg/mL: 1 μg/ml. The class given is cell-based, C57BL/6 mouse. As to the method: Regarding the compounds in the above Examples and indomethacin, the inhibition efficacy of COX-2 and COX-1 are being measured by the following two methods.
After cleaning C57BL/6 mouse's abdomen by 70% EtOH, the skin of mouse's abdomen was eliminated cautiously not to harm peritomeum and 5 ml of cold PBS was poured into the abdominal cavity and in certain times later macrophage-bleeding abdominal-liquid was collected by syringe. By adding RPMI-1640 badge containing penicillin(100 unit/mt) and streptomycin([…]) to cell pellet obtained by centrifugation of collected liquid about 5 minutes in 1500 rpm, it was disperesed and also COX-1 existing in the cell was inactivated by treating with 500 μM aspirin. After putting 1 ml cell suspension having cell number of 1×10^6 cells/mu into each 24-well microtiter plates, macrophages were adhered to the bottom of plate by culturing in the condition of 5% CO2/95% O2, at a temperature of 37° C. for 2 hours. Other cells not being adhered to were eliminated by washing two times with PBS. The purity of macrophages obtained through this process was identified by differential counting. After adding RPMI-1640 badge(normally 5×10^5 cell/ml) containing 3% right fetal blood serum to macrophage and treating it with LPS(lipopolysaccharide) to make final concentration as 10 μg/ml, it was cultured in the condition of 5% CO2, at a temperature of 37° C. for 16 hours. After inducing COX-2 by LPS, the cell culture medium was eliminated and macrophages was washed two times with PBS. And 1 ml of RRPI-1640 badge was added to each well again and after treating them with sample with appropriate concentration, they were cultured at a temperature of 37i É for 10 minutes. And then treated them with arachidonic acid to make their final concentration as 10 μM and cultured them additional 10 minutes, all the supernatant liquid of reaction was obtained. The amount of PGE2 produced in the supernatant liquid of reaction was determined by the PGE2 radioimmuno assay. The 100% COX-2's activation is referenced by the difference of the amount of PGE2 produced in the supernatant liquid of reaction between with 10 μM arachidonic acid treatment and without 10 μM arachidonic acid treatment.
2. Evaluation of COX-1's Inhibition Efficacy
Following the same procedure as the above evaluation of COX-2's inhibition efficacy, but there is no pre-treatment of aspirin and LPS in the adhesion of macrophage.

The target in data set [2] is T2, COX-2 (Mus musculus, UniProt Q05769).
T2 construct: endogenous in cells; host or cells: peritoneal macrophages of C57BL/6 mouse, aspirin-pretreated, LPS-induced
T2 sequence (Q05769 18-604): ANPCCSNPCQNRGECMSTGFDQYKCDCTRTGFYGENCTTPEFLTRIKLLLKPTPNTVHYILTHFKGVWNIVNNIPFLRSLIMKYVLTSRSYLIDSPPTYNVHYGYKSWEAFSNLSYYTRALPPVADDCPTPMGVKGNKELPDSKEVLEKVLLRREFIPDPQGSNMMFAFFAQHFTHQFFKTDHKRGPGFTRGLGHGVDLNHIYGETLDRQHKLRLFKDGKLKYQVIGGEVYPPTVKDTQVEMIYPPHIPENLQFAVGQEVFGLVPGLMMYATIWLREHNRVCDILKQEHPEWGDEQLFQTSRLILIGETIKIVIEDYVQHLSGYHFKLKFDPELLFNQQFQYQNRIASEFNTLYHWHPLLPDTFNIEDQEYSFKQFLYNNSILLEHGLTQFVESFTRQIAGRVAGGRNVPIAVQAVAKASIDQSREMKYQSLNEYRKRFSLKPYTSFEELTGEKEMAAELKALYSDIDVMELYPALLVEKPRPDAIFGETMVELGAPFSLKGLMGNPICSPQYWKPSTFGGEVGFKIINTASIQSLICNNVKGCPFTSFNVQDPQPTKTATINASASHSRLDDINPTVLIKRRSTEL
Briefly: Evaluation of COX-2's inhibition efficacy (PGE2 radioimmuno assay, LPS-induced, aspirin-pretreated peritoneal macrophages). The class given is cell-based, C57BL/6 mouse. Particulars: for inhibition at 0.1 µg/mL: 0.1 μg/ml; for inhibition at 1 µg/mL: 1 μg/ml; for inhibition at 10 µg/mL: 10 μg/ml. The method, then: Regarding the compounds in the above Examples and indomethacin, the inhibition efficacy of COX-2 and COX-1 are being measured by the following two methods. […] Evaluation of COX-2's Inhibition Efficacy (J. Pharmacol. Exp. […] After cleaning C57BL/6 mouse's abdomen by 70% EtOH, the skin of mouse's abdomen was eliminated cautiously not to harm peritomeum and 5 ml of cold PBS was poured into the abdominal cavity and in certain times later macrophage-bleeding abdominal-liquid was collected by syringe. […] After putting 1 ml cell suspension having cell number of 1×10^6 cells/mu into each 24-well microtiter plates, macrophages were adhered to the bottom of plate by culturing in the condition of 5% CO2/95% O2, at a temperature of 37° C. for 2 hours. Other cells not being adhered to were eliminated by washing two times with PBS. The purity of macrophages obtained through this process was identified by differential counting. […] After inducing COX-2 by LPS, the cell culture medium was eliminated and macrophages was washed two times with PBS. And 1 ml of RRPI-1640 badge was added to each well again and after treating them with sample with appropriate concentration, they were cultured at a temperature of 37i É for 10 minutes. And then treated them with arachidonic acid to make their final concentration as 10 μM and cultured them additional 10 minutes, all the supernatant liquid of reaction was obtained. The amount of PGE2 produced in the supernatant liquid of reaction was determined by the PGE2 radioimmuno assay.

Results on 16 compounds are retold here after patent US6340694B1, “Diarylbenzopyran derivatives as cyclooxygenase-2 inhibitors” (Pacific Corporation, priority 1998, dated 2002).

As for `CS(=O)(=O)c1ccc(-c2oc3ccccc3c(=O)c2-c2ccccc2)cc1` [Example 2, 2-(4-(Methylsulfonyl)phenyl)-3-phenyl-4H-1-benzopyran-4-one], the melting point was in the range of 208 to 209 °C. The inhibition at 10 µg/mL in data set [1] is less than 5%. In data set [2], the inhibition at 0.1 µg/mL stood at 34%, the inhibition at 1 µg/mL stood at 68% and the inhibition at 10 µg/mL was determined as 81%.

The compound `CS(=O)(=O)c1ccc(-c2oc3ccccc3c(=O)c2-c2ccc(Cl)cc2Cl)cc1` [Example 5, 3-(2,4-Dichlorophenyl)-2-(4-(methylsulfonyl)phenyl)-4H-1-benzopyran-4-one] gave a melting point of 172 to 175 °C. Moreover, in data set [2], the inhibition at 0.1 µg/mL is 39%, the inhibition at 1 µg/mL stood at 90% and the inhibition at 10 µg/mL turned out to be 100%.

`CS(=O)(=O)c1ccc(-c2oc3ccccc3c(=O)c2-c2cccs2)cc1` [Example 7, 2-(4-(Methylsulfonyl)phenyl)-3-(2-thienyl)-4H-1-benzopyran-4-one] showed a melting point of 165 to 167 °C.

`CC(=O)c1ccc(-c2c(-c3ccc(S(C)(=O)=O)cc3)oc3ccccc3c2=O)cc1` [Example 8, 3-(4-Acetylphenyl)-2-(4-(methylsulfonyl)phenyl)-4H-1-benzopyran-4-one] yielded a melting point of 223 to 224 °C.

Regarding `CS(=O)(=O)c1ccc(-c2oc3ccccc3c(=O)c2-c2cccc3ccccc23)cc1` [Example 13, 2-(4-(methylsulfonyl)phenyl)-3-(1-naphthyl)-4H-1-benzopyran-4-one], the melting point lay in the range of 193 to 194 °C.

In the case of `CS(=O)(=O)c1ccc(-c2oc3ccccc3c(=S)c2-c2cccc(Cl)c2Cl)cc1` [Example 38, 3-(2,3-Dichlorophenyl)-2-(4-(methylsulfonyl)phenyl)-4H-1-benzopyran-4-thione], the melting point lay within 191 to 192 °C. Besides, in data set [2], the inhibition at 0.1 µg/mL worked out at 18%, the inhibition at 1 µg/mL came out at 77% and the inhibition at 10 µg/mL worked out at 96%.

As to `Cc1cccc(-c2c(-c3ccc(S(C)(=O)=O)cc3)oc3ccccc3c2=S)c1` [Example 39, 3-(3-Methylphenyl)-2-(4-(methylsulfonyl)phenyl)-4H-1-benzopyran-4-thione], the melting point lay in the range of 201 to 202 °C. Also, in data set [2], the inhibition at 0.1 µg/mL turned out to be 11%, the inhibition at 1 µg/mL turned out to be 31% and the inhibition at 10 µg/mL turned out to be 86%.

For `CS(=O)(=O)c1ccc(-c2oc3ccccc3c(=S)c2-c2ccc(Cl)c(Cl)c2)cc1` [Example 42, 3-(3,4-Dichlorophenyl)-2-(4-(methylsulfonyl)phenyl)-4H-1-benzopyran-4-thione], the melting point was 168 °C.

`Cc1ccc(-c2c(-c3ccc(S(C)(=O)=O)cc3)oc3ccccc3c2=S)cc1` [Example 43, 3-(4-Methylphenyl)-2-(4-(methylsulfonyl)phenyl)-4H-1-benzopyran-4-thione] came in with a melting point of 204 to 205 °C.

Consider `COc1ccc(-c2c(-c3ccc(S(C)(=O)=O)cc3)oc3ccccc3c2=S)cc1` [Example 44, 3-(4-Methoxyphenyl)-2-(4-(methylsulfonyl)phenyl)-4H-1-benzopyran-4-thione], for which the melting point turned out to be 199 °C.

`CS(=O)(=O)c1ccc(-c2oc3ccccc3c(=S)c2-c2ccccc2F)cc1` [Example 45, 3-(2-Fluorophenyl)-2-(4-(methylsulfonyl)phenyl)-4H-1-benzopyran-4-thione] had a melting point of 198 to 200 °C.

The compound `CS(=O)(=O)c1ccc(-c2oc3ccccc3c(=S)c2-c2cccc(F)c2)cc1` [Example 46, 3-(3-Fluorophenyl)-2-(4-(methylsulfonyl)phenyl)-4H-1-benzopyran-4-thione] came in with a melting point of 212 °C. In data set [2], the inhibition at 0.1 µg/mL came to 4%, the inhibition at 1 µg/mL stood at 67% and the inhibition at 10 µg/mL was found to be 91%.

`Cc1ccc(-c2c(-c3ccc(S(N)(=O)=O)cc3)oc3ccc(F)cc3c2=O)cc1` [Example 49, 2-(4-(Aminosulfonyl)phenyl)-6-fluoro-3-(4-methylphenyl)-4H-1-benzopyran-4-one] came in with a melting point of 215 to 217 °C. Further, in data set [2], the inhibition at 0.1 µg/mL came out at 32%, the inhibition at 1 µg/mL was 76% and the inhibition at 10 µg/mL turned out to be 92%.

`NS(=O)(=O)c1ccc(-c2oc3ccc(F)cc3c(=O)c2-c2ccc(Cl)cc2)cc1` [Example 50, 2-(4-(Aminosulfonyl)phenyl)-6-fluoro-3-(4-chlorophenyl)-4H-1-benzopyran-4-one]: the melting point fell in the range of 215 to 217 °C. Also, in data set [2], the inhibition at 0.1 µg/mL came to 5%, the inhibition at 1 µg/mL was 80% and the inhibition at 10 µg/mL came out at 87%.

Consider `NS(=O)(=O)c1ccc(-c2oc3ccc(F)cc3c(=S)c2-c2ccc(F)cc2)cc1` [Example 68, 2-(4-(Aminosulfonyl)phenyl)-6-fluoro-3-(4-fluorophenyl)-4H-1-benzopyran-4-thione], for which, in data set [1], the inhibition at 1 µg/mL is 58% and the inhibition at 10 µg/mL worked out at 83%. In data set [2], the inhibition at 0.1 µg/mL amounted to 89% and the inhibition at 1 µg/mL was 100%.

As for `NS(=O)(=O)c1ccc(-c2oc3ccccc3c(=S)c2-c2ccc(F)cc2)cc1` [Example 69, 2-(4-(Aminosulfonyl)phenyl)-3-(4-fluorophenyl)-4H-1-benzopyran-4-thione], in data set [1], the inhibition at 1 µg/mL was 68% and the inhibition at 10 µg/mL was 90%. Moreover, in data set [2], the inhibition at 0.1 µg/mL turned out to be 42%, the inhibition at 1 µg/mL amounted to 98% and the inhibition at 10 µg/mL stood at 100%.

In general, inhibition refers to the change of the read-out against control, counted positive when it falls. A word on the melting point: it is the temperature of the solid-liquid transition.
